Here are results for one compound from US20240269214A1, “SUBSTANCE HAVING HIGH ACTIVITY AND HIGH SAFETY, PREPARATION METHOD THEREFOR, AND APPLICATION THEREOF IN DRUG” (priority 2021, published 2024).

The subject of experiment [1] is male Japanese white rabbits. Nature of the experiment: Inhibition of formation of atherosclerosis in rabbits on high-fat diet (percentage of aortic plaque area). Type of experiment: in vivo. As to conditions: high-fat diet 6 weeks, oils 1.5 g/kg/d, simvastatin 2.0 mg/kg/d, PC group 42.6±9.7%.
From the text: High fat fortified feed: Each rabbit is fed with 0.5 grams of cholesterol, 2.0 grams of lard, and 20 grams of egg yolk daily.
Feed for 6 weeks according to the above grouping and feeding conditions, and then execute the animals. After the animals are killed, the aorta is removed from the aortic valve orifice to the beginning of the common iliac artery, the aortic wall is cut longitudinally along the midline of the abdomen, fixed with 10% formaldehyde solution, and the distribution map of aortic lesions is drawn according to the aorta. The area of atherosclerotic plaque and the total area of aortic expansion are measured, and the percentage of plaque area is calculated.
For experiment [2], the system named is male Japanese white rabbits. Description: Reversing and ablating atherosclerosis in rabbits with established atherosclerosis model (percentage of aortic plaque area). Type of experiment: in vivo. The note with it: 6 weeks modelling then 3 months treatment, oils 1.5 g/kg/d, simvastatin 2.0 mg/kg/d, MOD 45.8±9.9%, MBF 59.9±8.9%.
From the text: Forty-eight 4-month-old male Japanese white rabbits weighing 2.0±0.2 kg were selected and randomly divided into 2 groups, as follows: • Normal diet group (Negative control group, NC): 8 male Japanese white rabbits, fed with basic feed; • Atherosclerosis modeling group (MOD): 40 male Japanese white rabbits, fed with high fat fortified basic diet, and the dose of peanut oil was 1.5 g/kg/d (converted based on adult and animal weight, body surface area and Km factor);
The area of atherosclerotic plaque and the total area of aortic expansion is measured, and the percentage of plaque area is calculated.
Three months later, all animals are euthanized.
After the animals are killed, the aorta is removed from the aortic valve orifice to the beginning of the common iliac artery, the aortic wall is cut longitudinally along the midline of the abdomen, fixed with 10% formaldehyde solution, and the distribution map of aortic lesions is drawn according to the aorta. The area of atherosclerotic plaque and the total area of aortic expansion is measured, and the percentage of plaque area is calculated.

Molecules are shown by their SMILES.

Turning to `CCC(C)(C)C(=O)O[C@H]1C[C@@H](C)C=C2C=C[C@H](C)[C@H](CC[C@@H]3C[C@@H](O)CC(=O)O3)[C@H]21` [simvastatin], the “Plaque area (percentage of atherosclerotic plaque in aortic area)” value is given as 20.2±4.2% in experiment [1] and 47.1±8.3% in experiment [2].
